This note sets out measurements from ChEMBL document CHEMBL4414667, “Uncarialins A-I, Monoterpenoid Indole Alkaloids from Uncaria rhynchophylla as Natural Agonists of the 5-HT1A Receptor” (J Nat Prod, 2019).

Some results are limits rather than exact numbers.

As a reminder, the EC50 is the midpoint of the concentration-response curve. Higher therefore signals a need for much substance.

The target of the assay is T1, 5-hydroxytryptamine receptor 1A (Homo sapiens, UniProt P08908).
T1 sequence (P08908 whole entry): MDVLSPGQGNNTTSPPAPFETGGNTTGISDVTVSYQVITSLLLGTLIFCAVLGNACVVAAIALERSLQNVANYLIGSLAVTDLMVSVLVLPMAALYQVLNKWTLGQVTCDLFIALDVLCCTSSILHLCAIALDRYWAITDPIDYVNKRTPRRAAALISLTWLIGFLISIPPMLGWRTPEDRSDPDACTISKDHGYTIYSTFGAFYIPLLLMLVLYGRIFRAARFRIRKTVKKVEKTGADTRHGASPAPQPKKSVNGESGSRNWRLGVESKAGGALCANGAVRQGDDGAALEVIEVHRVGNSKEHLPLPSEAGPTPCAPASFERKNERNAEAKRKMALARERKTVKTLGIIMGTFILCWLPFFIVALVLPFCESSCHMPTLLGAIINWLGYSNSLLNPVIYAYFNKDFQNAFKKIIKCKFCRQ
In words: Agonist activity at human 5HT1A receptor expressed in CHOK1 cells incubated for 16 hrs followed by forskolin-stimulation and measured after 2 hrs by dual-glo luciferase reporter gene assay. The class given is cell-based. Background: Reporter assays use an easily measured gene product as a stand-in for the process of interest.
In turn, `CC[C@H]1C[N+]2([O-])CCc3c([nH]c4ccccc34)[C@H]2C[C@@H]1/C(=C\OC)C(=O)OC` (stereo partly drawn) came in with a 50% effective concentration (EC50) of over 100 µM.

For `C=C[C@H]1CN2CCc3c([nH]c4ccccc34)[C@@H]2C[C@@H]1/C(=C\OC)C(=O)OC`, the concentration for a half-maximal effect (EC50) is over 100 µM. Molecule `C=C[C@H]1CN2CC[C@]3(O)C(=Nc4ccccc43)[C@H]2C[C@@H]1/C(=C\OC)C(=O)OC` showed a concentration giving a half-maximal response (EC50) of over 100 µM.

The molecule `C=C[C@H]1CN2CCc3c([nH]c4ccccc34)[C@H]2C[C@@H]1[C@@H](CO)C(=O)OC` gave an EC50 of 0.1 µM. Consider `C=C[C@H]1[C@H](O[C@@H]2O[C@H](CO)[C@@H](O)[C@H](O)[C@H]2O)OC=C2C(=O)N3CCc4c([nH]c5ccccc45)[C@@H]3C[C@H]21`, for which the EC50 is over 100 µM. `C=C[C@H]1[C@H](O[C@@H]2O[C@H](CO)[C@@H](O)[C@H](O)[C@H]2O)OC=C2C(=O)N3CCc4c([nH]c5ccccc45)[C@H]3C[C@H]21` yielded an EC50 of over 100 µM.

`CC[C@H]1C[N@+]2([O-])CCc3c([nH]c4ccccc34)[C@H]2C[C@H]1/C(=C\OC)C(=O)OC` came in with a concentration giving a half-maximal response (EC50) of over 100 µM.

The molecule `C=C[C@H]1CN2CCc3c([nH]c4ccccc34)[C@H]2C[C@@H]1[C@H](CO)C(=O)OC` showed an EC50 of 54.4 µM.

Regarding `CC[C@H]1CN2CCc3c([nH]c4ccccc34)[C@H]2C[C@@H]1[C@H](CO)C(=O)OC`, the half-maximal effective concentration (EC50) is over 100 µM. In turn, `COC(=O)C1=CO[C@@H](O[C@@H]2O[C@H](CO)[C@@H](O)[C@H](O)[C@H]2O)[C@H]2[C@@H]1C[C@H]1c3[nH]c4ccccc4c3CCN1C[C@@H]2O` registered a concentration for a half-maximal effect (EC50) of 1.6 µM. `COC(=O)C1=CO[C@@H](O[C@@H]2O[C@H](CO)[C@@H](O)[C@H](O)[C@H]2O)[C@@H]2[C@@H]3CN4CCc5c([nH]c6ccccc56)[C@]4(C[C@H]12)O3` yielded an EC50 of 10.2 µM. As to `C=C[C@H]1CN2CC[C@]3(O[C@@H]2C[C@@H]1/C(=C\OC)C(=O)OC)C(=O)Nc1ccccc13`, a half-maximal response (EC50) required 10.1 µM. This EC50 and that of the molecule before are within 1.5-fold of each other. As to `C/C=C1\CN2CCc3c([nH]c4ccccc34)[C@H]2C[C@@H]1/C(=C\OC)C(=O)OC`, the EC50 was over 100 µM. As for `C=C[C@H]1C[N@@+]2([O-])CCc3c([nH]c4ccccc34)[C@H]2C[C@@H]1/C(=C\OC)C(=O)OC`, the concentration for a half-maximal effect (EC50) is 85 µM. This lies in the double-digit micromolar range. The molecule `CC[C@H]1CN2CCc3c([nH]c4ccccc34)[C@H]2C[C@H]1/C(=C\OC)C(=O)OC` registered a concentration giving a half-maximal response (EC50) of over 100 µM. The molecule `C=C[C@H]1C[N@@+]2([O-])CCc3c([nH]c4ccccc34)[C@H]2C[C@@H]1[C@@H](CO)C(=O)OC` showed an EC50 of over 500 µM. With `C/C=C1/C[N+]2([O-])CCc3c([nH]c4ccccc34)[C@@H]2C[C@@H]1/C(=C\OC)C(=O)OC` (stereo partly drawn), the EC50 was over 100 µM. Molecule `C/C=C1\C[N@@+]2([O-])CCc3c([nH]c4ccccc34)[C@@H]2C[C@@H]1[C@H](CO)C(=O)OC` gave an EC50 of 11.4 µM.

`CC[C@H]1CN2CCc3c([nH]c4ccccc34)[C@H]2C[C@@H]1[C@@H](CO)C(=O)OC` displayed an EC50 of 2.2 µM. Molecule `C=C[C@H]1CN2CC[C@@]3(C(=O)Nc4ccccc43)[C@@H]2C[C@@H]1/C(=C\OC)C(=O)OC` [ISOCORYNOXEINE] yielded an EC50 of over 100 µM. In the case of `CC[C@H]1CN2CC[C@@]3(C(=O)Nc4ccccc43)[C@@H]2C[C@@H]1/C(=C\OC)C(=O)OC` [ISORHYNCHOPHYLLINE] it was 2 µM; in that of `CC[C@H]1CN2CC[C@]3(C(=O)Nc4ccccc43)[C@@H]2C[C@@H]1/C(=C\OC)C(=O)OC` [RHYNCHOPHYLLINE], 10.3 µM; in that of `COC(=O)C1=CO[C@@H](C)[C@@H]2CN3CCc4c([nH]c5ccccc45)[C@@H]3C[C@H]12` [TETRAHYDROALSTONINE], over 100 µM.
